Data taken from ChEMBL document CHEMBL1156790, “Synthesis and structure-activity relationships of antitubercular 2-nitroimidazooxazines bearing heterocyclic side chains” (J Med Chem, 2010).
Converted amounts (≈) assume the structure as drawn.

Columns and labels:
[1] = Metabolic stability in mouse liver microsomes after 1 hr at 37 degC; assay type: ADME, Microsome
Vero = experiment: Cytotoxicity against african green monkey Vero cells after 72 hrs by tetrazolium dye assay; assay type: cell-based; conditions: Chlorocebus sabaeus
[2] = tested on: Mycobacterium tuberculosis; experiment: Antitubercular effect in Mycobacterium tuberculosis infected BALB/c mouse assessed as CFU reduction at 100 mg/kg, po administered 5 days a week for 3 weeks relative to PA-824; assay type: functional
[3] = tested on: Mycobacterium tuberculosis; experiment: Antimycobacterial activity against Mycobacterium tuberculosis H37Rv expressing pFCA-luxAB after 10 days by luminescence-based low-oxygen recovery assay; assay type: functional; conditions: 240 h
[4] = tested on: Mycobacterium tuberculosis; experiment: Antimycobacterial activity against Mycobacterium tuberculosis H37Rv after 16 to 24 hrs by microplate alamar blue assay; assay type: functional
[5] = Thermodynamic solubility in water at pH 7.4 at; assay type: physicochemical; conditions: for solubility thermodynamic: water
[6] = (§1) Metabolic stability in human liver microsomes after 1 hr at 37 degC; assay type: ADME, Microsome; conditions: liver microsomes, read-out: Stability
Liver microsomes = experiment: as §1; assay type: ADME, Microsome; conditions: microsomes, 1 h

| SMILES | remaining at 1 h ([1]; liver microsomes, read-out: Stability) | IC50 (Vero) | fold change (FC) [2] | MIC [3] | MIC [4] | solubility ([5]; buffer) | remaining at 1 h [6] | Stability ([1]; microsomes, 1 h) | solubility thermodynamic [5] | Stability (Liver microsomes) |
| --- | --- | --- | --- | --- | --- | --- | --- | --- | --- | --- |
| Cn1nc(-c2ccc(OC(F)(F)F)cc2)cc1CO[C@@H]1COc2nc([N+](=O)[O-])cn2C1 | 81% | > 128 µM | 12 | 0.58 µM (≈ 0.255 µg/mL) | 0.06 µM (≈ 0.0264 µg/mL) | 0.88 µg/mL (≈ 2 µM) | 86% | – | – | – |
| O=[N+]([O-])c1cn2c(n1)OC[C@@H](OCc1ccn(-c3ccc(OC(F)(F)F)cc3)n1)C2 | – | > 128 µM | 41 | 0.61 µM (≈ 0.259 µg/mL) | 0.05 µM (≈ 0.0213 µg/mL) | – | – | 67% | 23 µg/mL (≈ 54.1 µM) | 87% |
| O=[N+]([O-])c1cn2c(n1)OC[C@@H](OCc1ccc(-c3ccc(OC(F)(F)F)cc3)cc1)C2 | – | > 128 µM | – | 1.3 µM (≈ 0.566 µg/mL) | – | – | – | – | < 0.5 µg/mL | – |
